Species on record: Rattus norvegicus
Assay: Open TG-GATES - Regimen: Single
Format: toxicity, organism-based, Sprague-Dawley
Parameters: regimen Single, gender Male, age 6 weeks
Details: in vivo, po, 0 mg/kg, route gavage, dose level Control; for APTT / Bas / Eos / Fbg / Hb / Ht / Lym / MCH / MCHC / MCV / Mono / Neu / PT / RBC / Ret / WBC / Plat: tissue Blood; for KIDNEY_L / KIDNEY_R / KIDNEY_TOTAL: tissue Kidney; for LIVER: tissue Liver; for ALP / ALT / AST / BUN / CRE / Ca / DBIL / GLC / IP / K / LDH / Na / PL / RALB / TBIL / TC / TG / TP / gamma-GTP: tissue Plasma

With CSc1ccc2c(c1)N(CCC1CCCCN1C)c1ccccc1S2 (configuration not stated) [THIORIDAZINE] the TERMINAL_BW (3 h) was 216.6 g, the APTT (3 h) was 16 s and the Bas (3 h) was 0%. It also gave an Eos (3 h) of 0.6%, a Fbg (3 h) of 206.6 mg/dL and a Hb (3 h) of 12.9 g/dL. The Ht (3 h) was 38.9%, the Lym (3 h) was 82.2% and the MCH (3 h) was 21.8 pg. For the same compound, the MCHC (3 h) was 33.2%, the MCV (3 h) was 65.7 fL and the Mono (3 h) was 7.4%. It also gave a Neu (3 h) of 10%, a PT (3 h) of 12.1 s and an RBC (3 h) of 592 x10_4/ul. The Ret (3 h) was 8.6%, the WBC (3 h) was 109.6 x10_2/uL and the KIDNEY_L (3 h) was 1 g. It also gave a KIDNEY_R (3 h) of 1 g, a KIDNEY_TOTAL (3 h) of 2 g and an LIVER (3 h) of 10.6 g. The ALP (3 h) was 789.2 IU/L, the ALT (3 h) was 37.2 IU/L and the AST (3 h) was 71 IU/L. It also gave a BUN (3 h) of 12.4 mg/dL, a CRE (3 h) of 0.5 mg/dL and a Ca (3 h) of 11.4 mg/dL. For the same compound, the DBIL (3 h) was 0.006 mg/dL, the GLC (3 h) was 197.6 mg/dL and the IP (3 h) was 10.1 mg/dL. It also gave a K (3 h) of 5 meq/L, an LDH (3 h) of 94.4 IU/L and a Na (3 h) of 137.4 meq/L. The PL (3 h) was 136.2 mg/dL, the RALB (3 h) was 3.8 g/dL and the TBIL (3 h) was 0.3 mg/dL. It also gave a TC (3 h) of 72.2 mg/dL, a TG (3 h) of 93.4 mg/dL and a TP (3 h) of 5.5 g/dL. For the same compound, the gamma-GTP (3 h) was 0.8 IU/L, the TERMINAL_BW (6 h) was 212.3 g and the APTT (6 h) was 16.3 s. The Bas (6 h) was 0%, the Eos (6 h) was 1% and the Fbg (6 h) was 216.8 mg/dL. The Hb (6 h) was 13.7 g/dL, the Ht (6 h) was 40.9% and the Lym (6 h) was 74%. For the same compound, the MCH (6 h) was 21.5 pg, the MCHC (6 h) was 33.3% and the MCV (6 h) was 64.4 fL. For the same compound, the Mono (6 h) was 8.2%, the Neu (6 h) was 17.2% and the PT (6 h) was 12.1 s. The Plat (6 h) was 98.4 x10_4/uL, the RBC (6 h) was 635.6 x10_4/ul and the Ret (6 h) was 7.7%. The WBC (6 h) was 117.4 x10_2/uL, the KIDNEY_L (6 h) was 0.9 g and the KIDNEY_R (6 h) was 1 g. For the same compound, the KIDNEY_TOTAL (6 h) was 1.9 g, the LIVER (6 h) was 9.5 g and the ALP (6 h) was 834 IU/L. For the same compound, the ALT (6 h) was 28 IU/L, the AST (6 h) was 60.4 IU/L and the BUN (6 h) was 12.4 mg/dL. The CRE (6 h) was 0.5 mg/dL, the Ca (6 h) was 10.9 mg/dL and the DBIL (6 h) was 0.016 mg/dL. The GLC (6 h) was 189 mg/dL, the IP (6 h) was 10.1 mg/dL and the K (6 h) was 5 meq/L. It also gave an LDH (6 h) of 100.4 IU/L, a Na (6 h) of 137.4 meq/L and a PL (6 h) of 147 mg/dL. For the same compound, the RALB (6 h) was 3.8 g/dL, the TBIL (6 h) was 0.4 mg/dL and the TC (6 h) was 80.2 mg/dL. It also gave a TG (6 h) of 84.4 mg/dL, a TP (6 h) of 5.5 g/dL and a gamma-GTP (6 h) of 2 IU/L. The TERMINAL_BW (9 h) was 210.2 g, the APTT (9 h) was 16.6 s and the Bas (9 h) was 0%. For the same compound, the Eos (9 h) was 1.2%, the Fbg (9 h) was 221.4 mg/dL and the Hb (9 h) was 13.4 g/dL. The Ht (9 h) was 40.6%, the Lym (9 h) was 73.2% and the MCH (9 h) was 21.6 pg. For the same compound, the MCHC (9 h) was 33.1%, the MCV (9 h) was 65.4 fL and the Mono (9 h) was 8.4%. The Neu (9 h) was 17.2%, the PT (9 h) was 12.2 s and the Plat (9 h) was 111.7 x10_4/uL. It also gave an RBC (9 h) of 620.6 x10_4/ul, a Ret (9 h) of 7.6% and a WBC (9 h) of 117.1 x10_2/uL. The KIDNEY_L (9 h) was 0.9 g, the KIDNEY_R (9 h) was 1 g and the KIDNEY_TOTAL (9 h) was 1.9 g. The LIVER (9 h) was 8.7 g, the ALP (9 h) was 724 IU/L and the ALT (9 h) was 30.6 IU/L. The AST (9 h) was 67.4 IU/L, the BUN (9 h) was 12.2 mg/dL and the CRE (9 h) was 0.5 mg/dL. The Ca (9 h) was 11.1 mg/dL, the DBIL (9 h) was 0.034 mg/dL and the GLC (9 h) was 197.6 mg/dL. For the same compound, the IP (9 h) was 10.7 mg/dL, the K (9 h) was 4.9 meq/L and the LDH (9 h) was 63 IU/L. The Na (9 h) was 139.6 meq/L, the PL (9 h) was 147.4 mg/dL and the RALB (9 h) was 4 g/dL. The TBIL (9 h) was 0.3 mg/dL, the TC (9 h) was 87.6 mg/dL and the TG (9 h) was 35.8 mg/dL. For the same compound, the TP (9 h) was 5.6 g/dL, the gamma-GTP (9 h) was 1.2 IU/L and the TERMINAL_BW (24 h) was 232.2 g. The APTT (24 h) was 15.8 s, the Bas (24 h) was 0% and the Eos (24 h) was 0.8%. For the same compound, the Fbg (24 h) was 225 mg/dL, the Hb (24 h) was 13.2 g/dL and the Ht (24 h) was 38.9%. For the same compound, the Lym (24 h) was 73%, the MCH (24 h) was 22 pg and the MCHC (24 h) was 33.9%. It also gave an MCV (24 h) of 64.9 fL, a Mono (24 h) of 9.4% and a Neu (24 h) of 16.8%. The PT (24 h) was 12.2 s, the Plat (24 h) was 107.1 x10_4/uL and the RBC (24 h) was 600.2 x10_4/ul. For the same compound, the Ret (24 h) was 8.3%, the WBC (24 h) was 127.4 x10_2/uL and the KIDNEY_L (24 h) was 1 g. It also gave a KIDNEY_R (24 h) of 1 g, a KIDNEY_TOTAL (24 h) of 2 g and an LIVER (24 h) of 11.4 g. For the same compound, the ALP (24 h) was 895 IU/L, the ALT (24 h) was 36 IU/L and the AST (24 h) was 65.2 IU/L. For the same compound, the BUN (24 h) was 18.4 mg/dL, the CRE (24 h) was 0.5 mg/dL and the Ca (24 h) was 11 mg/dL. It also gave a DBIL (24 h) of 0.016 mg/dL, a GLC (24 h) of 193.4 mg/dL and an IP (24 h) of 8.1 mg/dL. The K (24 h) was 5.1 meq/L, the LDH (24 h) was 73 IU/L and the Na (24 h) was 138.4 meq/L. For the same compound, the PL (24 h) was 150.8 mg/dL, the RALB (24 h) was 3.9 g/dL and the TBIL (24 h) was 0.3 mg/dL. It also gave a TC (24 h) of 81.6 mg/dL, a TG (24 h) of 87.8 mg/dL and a TP (24 h) of 5.7 g/dL.

From ChEMBL document CHEMBL3885861, “Open TG-GATES”
